Measurements published in the NIST ThermoML archive (doi:10.1016/j.jct.2016.10.042).

Test: xn = mol fraction of the nth substance listed
Conditions: 101 kPa, Liquid, Pycnometric method

C=CC(=O)OCCCC [butyl 2-propenoate] + C1CCOC1
mass density [kg/m3]
Conditions | 293.15 K | 298.15 K | 303.15 K | 308.15 K | 313.15 K | 318.15 K
x2 = 0 | 898.85 | 894.1 | 889.35 | 884.6 | 879.85 | 875.1
x2 = 0.0712 | 898.62 | 893.89 | 889.16 | 884.42 | 879.68 | 874.94
x2 = 0.1406 | 898.39 | 893.66 | 888.93 | 884.19 | 879.45 | 874.71
x2 = 0.208 | 898.1 | 893.37 | 888.64 | 883.91 | 879.17 | 874.43
x2 = 0.2779 | 897.74 | 893.01 | 888.27 | 883.53 | 878.79 | 874.05
x2 = 0.3685 | 897.14 | 892.4 | 887.66 | 882.91 | 878.16 | 873.41
x2 = 0.4339 | 896.6 | 891.85 | 887.1 | 882.35 | 877.59 | 872.83
x2 = 0.4996 | 895.97 | 891.21 | 886.45 | 881.69 | 876.92 | 872.15
x2 = 0.5642 | 895.25 | 890.48 | 885.71 | 880.93 | 876.15 | 871.37
x2 = 0.6426 | 894.22 | 889.43 | 884.64 | 879.85 | 875.05 | 870.25
x2 = 0.7208 | 893.03 | 888.22 | 883.41 | 878.59 | 873.77 | 868.95
x2 = 0.7956 | 891.72 | 886.88 | 882.04 | 877.2 | 872.36 | 867.51
x2 = 0.8642 | 890.32 | 885.45 | 880.58 | 875.71 | 870.84 | 865.97
x2 = 0.9322 | 888.76 | 883.86 | 878.96 | 874.05 | 869.14 | 864.23

C=CC(=O)OCC [ethyl propenoate] + C1CCOC1
mass density [kg/m3]
Conditions | 293.15 K | 298.15 K | 303.15 K | 308.15 K | 313.15 K | 318.15 K
x2 = 0 | 921.76 | 915.95 | 910.14 | 904.33 | 898.52 | 892.71
x2 = 0.0825 | 920.35 | 914.64 | 908.93 | 903.22 | 897.5 | 891.78
x2 = 0.167 | 918.74 | 913.11 | 907.48 | 901.85 | 896.22 | 890.59
x2 = 0.2302 | 917.35 | 911.79 | 906.23 | 900.67 | 895.1 | 889.53
x2 = 0.316 | 915.21 | 909.73 | 904.25 | 898.77 | 893.29 | 887.81
x2 = 0.3892 | 913.14 | 907.73 | 902.32 | 896.91 | 891.5 | 886.09
x2 = 0.4603 | 910.93 | 905.58 | 900.23 | 894.88 | 889.53 | 884.18
x2 = 0.5286 | 908.61 | 903.32 | 898.03 | 892.74 | 887.45 | 882.16
x2 = 0.5947 | 906.16 | 900.93 | 895.7 | 890.47 | 885.24 | 880
x2 = 0.6605 | 903.54 | 898.36 | 893.18 | 888 | 882.82 | 877.64
x2 = 0.7283 | 900.64 | 895.52 | 890.4 | 885.28 | 880.16 | 875.04
x2 = 0.7874 | 897.95 | 892.88 | 887.81 | 882.74 | 877.67 | 872.6
x2 = 0.8689 | 894 | 888.98 | 883.96 | 878.94 | 873.92 | 868.9
x2 = 0.936 | 890.52 | 885.53 | 880.54 | 875.55 | 870.56 | 865.57

C=CC(=O)OC [methyl propenoate] + C1CCOC1
mass density [kg/m3]
Conditions | 293.15 K | 298.15 K | 303.15 K | 308.15 K | 313.15 K | 318.15 K
x2 = 0 | 953.51 | 947.56 | 941.61 | 935.66 | 929.71 | 923.76
x2 = 0.0773 | 950.05 | 944.24 | 938.43 | 932.62 | 926.81 | 921
x2 = 0.1554 | 946.35 | 940.67 | 934.99 | 929.31 | 923.63 | 917.95
x2 = 0.2064 | 943.74 | 938.15 | 932.56 | 926.97 | 921.37 | 915.77
x2 = 0.2545 | 941.15 | 935.63 | 930.11 | 924.58 | 919.05 | 913.52
x2 = 0.3215 | 937.33 | 931.89 | 926.45 | 921 | 915.55 | 910.1
x2 = 0.3989 | 932.62 | 927.26 | 921.9 | 916.54 | 911.17 | 905.8
x2 = 0.4655 | 928.35 | 923.06 | 917.77 | 912.47 | 907.17 | 901.87
x2 = 0.53 | 924.03 | 918.8 | 913.57 | 908.33 | 903.09 | 897.85
x2 = 0.6023 | 918.98 | 913.81 | 908.64 | 903.47 | 898.3 | 893.13
x2 = 0.6834 | 913.02 | 907.92 | 902.82 | 897.72 | 892.62 | 887.52
x2 = 0.7632 | 906.87 | 901.83 | 896.79 | 891.75 | 886.7 | 881.65
x2 = 0.8468 | 900.16 | 895.17 | 890.18 | 885.19 | 880.19 | 875.19
x2 = 0.9316 | 893 | 888.04 | 883.08 | 878.12 | 873.16 | 868.2

C=CC(=O)OC(C)(C)C [tert-butyl acrylate] + C1CCOC1
mass density [kg/m3]
Conditions | 293.15 K | 298.15 K | 303.15 K | 308.15 K | 313.15 K | 318.15 K
x2 = 0 | 884.13 | 879.66 | 875.2 | 870.74 | 866.28 | 861.82
x2 = 0.0736 | 884.47 | 880.01 | 875.55 | 871.08 | 866.61 | 862.14
x2 = 0.1489 | 884.84 | 880.36 | 875.88 | 871.4 | 866.92 | 862.44
x2 = 0.2121 | 885.14 | 880.65 | 876.16 | 871.67 | 867.17 | 862.67
x2 = 0.2773 | 885.43 | 880.92 | 876.41 | 871.9 | 867.39 | 862.88
x2 = 0.362 | 885.78 | 881.25 | 876.71 | 872.17 | 867.63 | 863.09
x2 = 0.4382 | 886.06 | 881.5 | 876.94 | 872.37 | 867.8 | 863.23
x2 = 0.5024 | 886.28 | 881.69 | 877.1 | 872.5 | 867.9 | 863.3
x2 = 0.5815 | 886.5 | 881.87 | 877.24 | 872.61 | 867.98 | 863.35
x2 = 0.6532 | 886.66 | 882 | 877.34 | 872.67 | 868 | 863.33
x2 = 0.7268 | 886.79 | 882.08 | 877.37 | 872.66 | 867.95 | 863.24
x2 = 0.7921 | 886.88 | 882.13 | 877.38 | 872.62 | 867.86 | 863.1
x2 = 0.8698 | 886.97 | 882.15 | 877.33 | 872.51 | 867.69 | 862.86
x2 = 0.9352 | 887 | 882.12 | 877.24 | 872.36 | 867.48 | 862.59
